ChEMBL document CHEMBL1201862, “PubChem BioAssay data set” (2004)
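All cell lines were grown in 96-well plates and treated with compound for 48 hours. Abbreviation: GI50, concentration required for 50% inhibition of growth.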 The source made the active and inactive calls. Cut-off read from the data, not from the text of the source: active = GI50 up to about 1.1 µM and inactive = higher.

Tests used:
Experiment in all cases: growth of human tumour cells (NCI), 48 h
[1] = tested on: HCT-15
[2] = tested on: T47D
[3] = tested on: UACC-257
[4] = tested on: A498
[5] = tested on: PC-3
[6] = tested on: MCF7
[7] = tested on: TK-10
[8] = tested on: SK-MEL-28
[9] = tested on: COLO 205
[10] = tested on: OVCAR-3
[11] = tested on: NCI-H460
[12] = tested on: SK-MEL-2
[13] = tested on: HOP-62
[14] = tested on: MOLT-4
[15] = tested on: 786-0
[16] = tested on: RPMI-8226
[17] = tested on: NCI-H226
[18] = tested on: K562
[19] = tested on: OVCAR-8
[20] = tested on: CAKI-1

Row | SMILES | GI50 [1] [µM] | GI50 [2] | GI50 [3] | GI50 [4] | GI50 [5] | GI50 [6] | GI50 [7] | GI50 [8] | GI50 [9] | GI50 [10] | GI50 [11] | GI50 [12] | GI50 [13] | GI50 [14] | GI50 [15] | GI50 [16] | GI50 [17] | GI50 [18] | GI50 [19] | GI50 [20]
1 | CC(=O)Nc1ccc(Nc2cc(=O)n(C)c(=O)[nH]2)cc1 | > 100 | > 100 µM (inactive) | > 100 µM (inactive) | > 100 µM (inactive) | > 100 µM (inactive) | > 100 µM (inactive) | > 100 µM (inactive) | > 100 µM (inactive) | > 100 µM (inactive) | > 100 µM (inactive) | > 100 µM (inactive) | > 100 µM (inactive) | > 100 µM (inactive) | > 100 µM (inactive) | > 100 µM (inactive) | > 100 µM (inactive) | > 100 µM (inactive) | > 100 µM (inactive) | > 100 µM (inactive) | > 100 µM (inactive)
2 | CCOC(=O)/C(C#N)=C(/NNc1ccccc1)c1ccncc1C(=O)O | > 22.7 | 8.17 µM (inactive) | 26.2 µM (inactive) | > 100 µM (inactive) | 7.08 µM (inactive) | > 64.9 µM (inactive) | > 100 µM (inactive) | > 39.1 µM (inactive) | 4.37 µM (inactive) | > 100 µM (inactive) | > 28.1 µM (inactive) | > 75.2 µM (inactive) | > 100 µM (inactive) | 5.09 µM (inactive) | > 100 µM (inactive) | > 56.8 µM (inactive) | > 100 µM (inactive) | 3.28 µM (inactive) | > 32.4 µM (inactive) | > 73.1 µM (inactive)
3 | Oc1ccc2c(c1)OCC(O)(c1ccccc1O)C2 (stereo not given) | > 100 | > 100 µM (inactive) | > 100 µM (inactive) | > 100 µM (inactive) | > 100 µM (inactive) | > 100 µM (inactive) | > 100 µM (inactive) | > 100 µM (inactive) | > 100 µM (inactive) | > 100 µM (inactive) | > 100 µM (inactive) | > 100 µM (inactive) | > 100 µM (inactive) | > 100 µM (inactive) | > 100 µM (inactive) | > 100 µM (inactive) | > 100 µM (inactive) | > 100 µM (inactive) | > 100 µM (inactive) | > 100 µM (inactive)
4 | S=c1ssc2c3ssc(=S)c3n(Cc3ccccc3)c12 | 39.3 | 22.3 µM (inactive) | > 100 µM (inactive) | > 100 µM (inactive) | 74.6 µM (inactive) | 81.3 µM (inactive) | > 100 µM (inactive) | > 100 µM (inactive) | > 100 µM (inactive) | > 100 µM (inactive) | > 100 µM (inactive) | > 100 µM (inactive) | > 100 µM (inactive) | 4.9 µM (inactive) | 37.3 µM (inactive) | > 100 µM (inactive) | > 100 µM (inactive) | 40.9 µM (inactive) | 74.8 µM (inactive) | > 100 µM (inactive)
5 | CNC(=O)N(C1=NCC(C)S1)c1ccc(C)c(C)c1 (stereo not given) | 2.77 | 7.33 µM (inactive) | 16.1 µM (inactive) | 2.99 µM (inactive) | 3.98 µM (inactive) | 2.77 µM (inactive) | 9.04 µM (inactive) | 8.49 µM (inactive) | 3.56 µM (inactive) | 2.4 µM (inactive) | 3.36 µM (inactive) | 1.87 µM (inactive) | 5.98 µM (inactive) | 4.81 µM (inactive) | 4.74 µM (inactive) | 2.81 µM (inactive) | 4.6 µM (inactive) | 0.923 µM (active) | 4.74 µM (inactive) | 2.7 µM (inactive)
6 | O=C1C2CC[C@@H]3C(=O)C(Cl)(Cl)[C@@H]3CCC2C1(Cl)Cl (stereo not given in full) | 98.6 | > 100 µM (inactive) | > 100 µM (inactive) | > 100 µM (inactive) | > 100 µM (inactive) | 42.8 µM (inactive) | > 100 µM (inactive) | > 100 µM (inactive) | 71 µM (inactive) | 46.6 µM (inactive) | > 100 µM (inactive) | > 100 µM (inactive) | 3.24 µM (inactive) | 26.2 µM (inactive) | > 100 µM (inactive) | 32.4 µM (inactive) | > 100 µM (inactive) | 44.8 µM (inactive) | > 100 µM (inactive) | > 100 µM (inactive)
7 | O=[N+]([O-])C(/C(Cl)=C(\Cl)Br)=C(/Cl)SCc1ccccc1 | 2.9 | 3.68 µM (inactive) | 6.21 µM (inactive) | 8.04 µM (inactive) | 3.84 µM (inactive) | 2.95 µM (inactive) | 4.5 µM (inactive) | 2.31 µM (inactive) | 1.98 µM (inactive) | 2.74 µM (inactive) | 12.8 µM (inactive) | 3.8 µM (inactive) | 15.1 µM (inactive) | 0.778 µM (active) | 2.08 µM (inactive) | 1.72 µM (inactive) | 14.4 µM (inactive) | 1.27 µM (inactive) | 2.26 µM (inactive) | 1.8 µM (inactive)
8 | N#Cc1cc2c(n(C3OC(CO)C(O)C(O)C3O)c1=S)CCC2 (stereo not given) | > 100 | > 100 µM (inactive) | > 100 µM (inactive) | > 100 µM (inactive) | > 100 µM (inactive) | > 100 µM (inactive) | > 100 µM (inactive) | > 100 µM (inactive) | > 100 µM (inactive) | > 100 µM (inactive) | > 100 µM (inactive) | > 100 µM (inactive) | > 100 µM (inactive) | > 100 µM (inactive) | > 100 µM (inactive) | > 100 µM (inactive) | > 100 µM (inactive) | > 100 µM (inactive) | > 100 µM (inactive) | > 100 µM (inactive)
9 | O=C(c1ccccc1)N1CCN(C(=S)N(C(=O)c2ccccc2)c2ccccc2)C1=S | 2.18 | 4.68 µM (inactive) | 8.49 µM (inactive) | 4.02 µM (inactive) | 6.59 µM (inactive) | 3.13 µM (inactive) | 5.83 µM (inactive) | 3.27 µM (inactive) | 3.28 µM (inactive) | 4.21 µM (inactive) | 17.5 µM (inactive) | 7.41 µM (inactive) | 10.3 µM (inactive) | 1.89 µM (inactive) | 2.09 µM (inactive) | 0.914 µM (active) | 10.7 µM (inactive) | 2.41 µM (inactive) | 3.13 µM (inactive) | 2.47 µM (inactive)
10 | Nc1nn2c(C(Br)Br)cc(C(Br)Br)nc2c1[N+](=O)[O-] | 1.07 | 0.667 µM (active) | 1.32 µM (inactive) | 2.18 µM (inactive) | 1.36 µM (inactive) | 0.826 µM (active) | 0.971 µM (active) | 1.53 µM (inactive) | 0.659 µM (active) | 0.437 µM (active) | 2.41 µM (inactive) | 1.89 µM (inactive) | 1.88 µM (inactive) | 0.303 µM (active) | 0.336 µM (active) | 0.239 µM (active) | 2.21 µM (inactive) | 0.248 µM (active) | 0.962 µM (active) | 0.5 µM (active)
